Reference: the kinase profiling compilation of Christmann-Franck et al. (2016)
Each block holds one molecule with its values, some of them ahead of it.

Assays:
Assay in all cases: radiometric filter-binding kinase assay
HIPK3 (human) = HIPK3 (human) (UniProt Q9H422)
IGF1R (human) = IGF1R (human) (UniProt P08069)
ERBB4 (human) = ERBB4 (human) (UniProt Q15303)
GSK3B (human) = GSK3B (human) (UniProt P49841)
DYRK1A (human) = DYRK1A (human) (UniProt Q13627)
FGFR1 (human) = FGFR1 (human) (UniProt P11362)
MAP3K5 (human) = MAP3K5 (human) (UniProt Q99683)
[1] = tested on: SGK1 (human), O00141 [S422D]
PRKAA1 or PRKAA2 (rat) = settings: accession and sequence are those of the human protein
STK3 (human) = STK3 (human) (UniProt Q13188)
MAP2K2 (human) = MAP2K2 (human) (UniProt P36507)
PHKG1 (human) = PHKG1 (human) (UniProt Q16816)
MKNK1 (human) = MKNK1 (human) (UniProt Q9BUB5)
MELK (human) = MELK (human) (UniProt Q14680)
MAPK9 (human) = MAPK9 (human) (UniProt P45984)
MARK1 (human) = MARK1 (human) (UniProt Q9P0L2)
PAK7 (human) = PAK7 (human) (UniProt Q9P286)
MAPK3 (human) = MAPK3 (human) (UniProt P27361)
MAPK3 (human), sequence (P27361 whole entry, looked up): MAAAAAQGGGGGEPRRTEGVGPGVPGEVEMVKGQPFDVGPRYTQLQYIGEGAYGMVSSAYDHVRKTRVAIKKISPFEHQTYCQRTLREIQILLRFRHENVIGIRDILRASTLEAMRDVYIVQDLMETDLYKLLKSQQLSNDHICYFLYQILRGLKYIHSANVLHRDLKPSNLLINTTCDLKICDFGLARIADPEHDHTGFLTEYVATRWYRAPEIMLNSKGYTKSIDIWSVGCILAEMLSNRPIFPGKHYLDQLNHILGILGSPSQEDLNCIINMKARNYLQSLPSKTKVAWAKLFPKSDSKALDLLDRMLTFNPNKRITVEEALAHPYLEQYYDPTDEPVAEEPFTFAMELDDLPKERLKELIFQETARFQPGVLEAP

PIM3 (human) = PIM3 (human) (UniProt Q86V86)
CAMKK2 (human) = CAMKK2 (human) (UniProt Q96RR4)
BRSK1 (human) = BRSK1 (human) (UniProt Q8TDC3)
BRSK1 (human), sequence (Q8TDC3 whole entry, looked up): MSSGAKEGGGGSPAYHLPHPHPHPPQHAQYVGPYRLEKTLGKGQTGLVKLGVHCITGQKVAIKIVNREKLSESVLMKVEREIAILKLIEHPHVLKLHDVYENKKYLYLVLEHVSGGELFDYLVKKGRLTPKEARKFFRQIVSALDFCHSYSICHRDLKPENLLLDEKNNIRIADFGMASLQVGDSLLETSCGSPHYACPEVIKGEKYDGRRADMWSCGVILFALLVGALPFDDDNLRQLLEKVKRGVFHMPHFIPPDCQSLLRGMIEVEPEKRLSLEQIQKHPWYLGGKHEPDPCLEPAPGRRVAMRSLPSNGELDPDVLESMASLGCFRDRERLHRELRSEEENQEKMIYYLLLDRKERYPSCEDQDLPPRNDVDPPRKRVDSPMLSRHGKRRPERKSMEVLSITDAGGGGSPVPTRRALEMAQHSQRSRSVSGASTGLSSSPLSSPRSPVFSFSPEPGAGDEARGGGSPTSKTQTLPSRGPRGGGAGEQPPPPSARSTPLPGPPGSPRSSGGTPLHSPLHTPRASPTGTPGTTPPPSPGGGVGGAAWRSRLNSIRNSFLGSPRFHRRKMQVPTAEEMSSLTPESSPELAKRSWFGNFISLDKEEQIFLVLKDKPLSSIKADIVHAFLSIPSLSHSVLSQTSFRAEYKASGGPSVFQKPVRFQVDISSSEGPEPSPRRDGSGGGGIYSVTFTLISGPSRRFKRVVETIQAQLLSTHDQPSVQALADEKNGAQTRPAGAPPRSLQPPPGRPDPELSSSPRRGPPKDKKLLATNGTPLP

EEF2K (human) = EEF2K (human) (UniProt O00418)
MAPKAPK5 (human) = MAPKAPK5 (human) (UniProt Q8IW41)
EPHB4 (human) = EPHB4 (human) (UniProt P54760)
PRKCZ (human) = PRKCZ (human) (UniProt Q05513)
MAPK13 (human) = MAPK13 (human) (UniProt O15264)
MAPK13 (human), sequence (O15264 whole entry, looked up): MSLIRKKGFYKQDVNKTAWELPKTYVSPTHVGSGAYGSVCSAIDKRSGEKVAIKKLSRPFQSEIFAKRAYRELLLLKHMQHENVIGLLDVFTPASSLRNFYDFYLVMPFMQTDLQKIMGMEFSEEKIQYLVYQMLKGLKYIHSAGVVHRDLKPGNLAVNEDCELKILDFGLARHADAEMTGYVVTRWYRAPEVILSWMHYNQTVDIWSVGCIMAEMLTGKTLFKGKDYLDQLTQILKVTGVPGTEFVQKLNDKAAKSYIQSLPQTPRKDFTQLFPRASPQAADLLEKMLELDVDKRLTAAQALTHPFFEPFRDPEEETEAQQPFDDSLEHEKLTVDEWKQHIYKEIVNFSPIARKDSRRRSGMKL

MAPKAPK2 (human) = MAPKAPK2 (human) (UniProt P49137)
MAPKAPK2 (human), sequence (P49137 whole entry, looked up): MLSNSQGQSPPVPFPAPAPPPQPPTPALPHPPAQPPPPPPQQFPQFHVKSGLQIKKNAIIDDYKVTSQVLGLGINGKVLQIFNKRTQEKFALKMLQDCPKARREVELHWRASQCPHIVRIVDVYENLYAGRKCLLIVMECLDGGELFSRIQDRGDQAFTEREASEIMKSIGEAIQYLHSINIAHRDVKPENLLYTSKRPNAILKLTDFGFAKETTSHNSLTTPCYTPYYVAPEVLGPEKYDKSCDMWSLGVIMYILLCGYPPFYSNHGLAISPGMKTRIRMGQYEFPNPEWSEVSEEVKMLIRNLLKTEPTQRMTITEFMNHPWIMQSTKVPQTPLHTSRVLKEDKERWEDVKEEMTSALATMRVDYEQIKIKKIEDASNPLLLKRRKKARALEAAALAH

MAPK12 (human) = MAPK12 (human) (UniProt P53778)
SYK (human) = SYK (human) (UniProt P43405)
PRKACA (human) = PRKACA (human) (UniProt P17612)
PIM1 (human) = PIM1 (human) (UniProt P11309)
MAP2K6 (human) = MAP2K6 (human) (UniProt P52564)
MAP2K6 (human), sequence (P52564 whole entry, looked up): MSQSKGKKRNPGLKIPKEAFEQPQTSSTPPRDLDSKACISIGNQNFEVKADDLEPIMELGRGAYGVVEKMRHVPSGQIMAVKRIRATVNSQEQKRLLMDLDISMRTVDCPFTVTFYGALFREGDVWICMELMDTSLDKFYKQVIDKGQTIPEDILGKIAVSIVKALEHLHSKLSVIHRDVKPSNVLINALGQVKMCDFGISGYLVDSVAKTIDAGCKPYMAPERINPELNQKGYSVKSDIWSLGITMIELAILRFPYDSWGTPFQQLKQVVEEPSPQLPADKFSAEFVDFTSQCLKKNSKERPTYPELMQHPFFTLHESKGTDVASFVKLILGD

PIM2 (human) = PIM2 (human) (UniProt Q9P1W9)
DAPK1 (human) = DAPK1 (human) (UniProt P53355)
DAPK1 (human), sequence (P53355 whole entry, looked up): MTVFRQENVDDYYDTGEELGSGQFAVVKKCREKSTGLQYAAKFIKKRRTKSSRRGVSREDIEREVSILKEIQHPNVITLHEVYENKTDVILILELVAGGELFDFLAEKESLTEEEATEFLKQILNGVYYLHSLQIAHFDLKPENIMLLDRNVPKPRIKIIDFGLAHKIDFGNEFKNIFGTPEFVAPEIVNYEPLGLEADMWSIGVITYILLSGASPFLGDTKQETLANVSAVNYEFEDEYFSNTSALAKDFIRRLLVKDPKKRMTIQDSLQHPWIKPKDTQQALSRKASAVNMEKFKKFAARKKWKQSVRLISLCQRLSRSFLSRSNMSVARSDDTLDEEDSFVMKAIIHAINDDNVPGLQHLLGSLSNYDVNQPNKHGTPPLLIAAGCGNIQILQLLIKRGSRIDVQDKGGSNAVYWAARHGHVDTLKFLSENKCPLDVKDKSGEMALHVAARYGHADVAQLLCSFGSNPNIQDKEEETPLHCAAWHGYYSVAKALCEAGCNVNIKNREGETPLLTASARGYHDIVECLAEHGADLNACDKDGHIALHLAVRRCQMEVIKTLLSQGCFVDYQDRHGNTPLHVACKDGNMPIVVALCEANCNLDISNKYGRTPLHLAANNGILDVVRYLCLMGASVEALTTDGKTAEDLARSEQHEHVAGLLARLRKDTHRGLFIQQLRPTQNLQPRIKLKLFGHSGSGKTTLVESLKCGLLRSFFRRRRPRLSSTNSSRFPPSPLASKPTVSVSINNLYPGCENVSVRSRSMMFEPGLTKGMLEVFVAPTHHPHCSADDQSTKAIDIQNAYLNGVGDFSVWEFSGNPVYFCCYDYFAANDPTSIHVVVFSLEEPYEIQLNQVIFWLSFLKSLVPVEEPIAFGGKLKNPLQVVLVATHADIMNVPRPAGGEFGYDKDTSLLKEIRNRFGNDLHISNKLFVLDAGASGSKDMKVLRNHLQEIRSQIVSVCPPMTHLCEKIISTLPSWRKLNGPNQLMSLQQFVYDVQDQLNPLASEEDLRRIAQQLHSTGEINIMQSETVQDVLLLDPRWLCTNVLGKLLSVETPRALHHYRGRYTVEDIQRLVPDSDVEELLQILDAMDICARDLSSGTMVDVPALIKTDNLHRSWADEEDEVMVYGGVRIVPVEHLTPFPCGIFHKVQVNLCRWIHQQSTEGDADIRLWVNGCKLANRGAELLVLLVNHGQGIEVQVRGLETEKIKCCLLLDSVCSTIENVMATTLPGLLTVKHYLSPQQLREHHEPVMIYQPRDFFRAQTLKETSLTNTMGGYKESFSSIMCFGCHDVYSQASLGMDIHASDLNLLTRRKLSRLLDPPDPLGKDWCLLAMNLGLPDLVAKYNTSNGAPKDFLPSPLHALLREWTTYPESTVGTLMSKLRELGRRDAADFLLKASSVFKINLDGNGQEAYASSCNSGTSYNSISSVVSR

IKBKE (human) = IKBKE (human) (UniProt Q14164)
BRSK2 (human) = BRSK2 (human) (UniProt Q8IWQ3)

HIPK3 (human), sequence (Q9H422 whole entry, looked up): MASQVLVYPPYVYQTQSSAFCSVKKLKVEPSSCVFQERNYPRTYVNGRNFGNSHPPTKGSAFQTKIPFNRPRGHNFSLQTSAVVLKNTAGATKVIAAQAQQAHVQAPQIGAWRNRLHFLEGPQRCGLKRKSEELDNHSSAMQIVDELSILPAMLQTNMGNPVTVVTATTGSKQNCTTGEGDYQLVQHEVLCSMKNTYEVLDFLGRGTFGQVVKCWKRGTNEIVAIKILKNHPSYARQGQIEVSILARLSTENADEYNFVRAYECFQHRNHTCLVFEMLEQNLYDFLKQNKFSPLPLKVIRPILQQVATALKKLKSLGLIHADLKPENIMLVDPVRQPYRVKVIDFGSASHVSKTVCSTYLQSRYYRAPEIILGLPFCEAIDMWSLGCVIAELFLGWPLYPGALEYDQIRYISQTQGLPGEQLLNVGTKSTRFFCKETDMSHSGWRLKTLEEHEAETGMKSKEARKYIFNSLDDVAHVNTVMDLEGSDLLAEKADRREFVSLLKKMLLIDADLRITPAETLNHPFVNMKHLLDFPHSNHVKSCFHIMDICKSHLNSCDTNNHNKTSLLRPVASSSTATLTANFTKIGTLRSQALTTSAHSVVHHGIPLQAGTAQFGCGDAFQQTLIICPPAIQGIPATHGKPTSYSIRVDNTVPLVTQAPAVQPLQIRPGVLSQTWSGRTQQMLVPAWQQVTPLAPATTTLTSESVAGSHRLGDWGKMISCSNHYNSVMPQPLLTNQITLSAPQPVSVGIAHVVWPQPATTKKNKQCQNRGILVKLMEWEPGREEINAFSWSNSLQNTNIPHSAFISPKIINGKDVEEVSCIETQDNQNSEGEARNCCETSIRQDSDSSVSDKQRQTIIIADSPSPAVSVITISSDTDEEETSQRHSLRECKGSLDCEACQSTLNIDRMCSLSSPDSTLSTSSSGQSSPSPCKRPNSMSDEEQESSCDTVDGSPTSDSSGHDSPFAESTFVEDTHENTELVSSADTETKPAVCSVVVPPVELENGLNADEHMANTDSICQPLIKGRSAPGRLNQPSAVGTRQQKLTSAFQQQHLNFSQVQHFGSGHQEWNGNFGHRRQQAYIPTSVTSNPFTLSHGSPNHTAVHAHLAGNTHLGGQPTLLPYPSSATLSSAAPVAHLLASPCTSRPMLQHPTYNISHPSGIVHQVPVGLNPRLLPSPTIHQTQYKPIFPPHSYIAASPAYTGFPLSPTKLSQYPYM

- residual activity (HIPK3 (human); compound 10.0 µM): 89%
- residual activity (HIPK3 (human); compound 50.0 µM): 97%
- residual activity (IGF1R (human); compound 10.0 µM): 76%
- residual activity (IGF1R (human); compound 50.0 µM): 56%
- residual activity (ERBB4 (human); compound 10.0 µM): 80%
- residual activity (ERBB4 (human); compound 50.0 µM): 76%
- residual activity (GSK3B (human); compound 1.0 µM): 74%
- residual activity (GSK3B (human); compound 10.0 µM): 79%
- residual activity (GSK3B (human); compound 50.0 µM): 76%
- residual activity (DYRK1A (human); compound 1.0 µM): 98%
- residual activity (DYRK1A (human); compound 50.0 µM): 89%
- residual activity (FGFR1 (human); compound 10.0 µM): 104%
- residual activity (FGFR1 (human); compound 50.0 µM): 104%
- residual activity (MAP3K5 (human); compound 10.0 µM): 92%
- residual activity (MAP3K5 (human); compound 50.0 µM): 83%
- residual activity ([1]; compound 1.0 µM): 89%
- residual activity ([1]; compound 10.0 µM): 98%
- residual activity (PRKAA1 or PRKAA2 (rat); compound 1.0 µM): 98%
- residual activity (PRKAA1 or PRKAA2 (rat); compound 10.0 µM): 94%
- residual activity (PRKAA1 or PRKAA2 (rat); compound 50.0 µM): 91%
- residual activity (STK3 (human); compound 1.0 µM): 90%
- residual activity (STK3 (human); compound 10.0 µM): 88%
- residual activity (STK3 (human); compound 50.0 µM): 87%
- residual activity (MAP2K2 (human); compound 10.0 µM): 102%
- residual activity (MAP2K2 (human); compound 50.0 µM): 92%
- residual activity (PHKG1 (human); compound 1.0 µM): 110%
- residual activity (PHKG1 (human); compound 10.0 µM): 89%
- residual activity (PHKG1 (human); compound 50.0 µM): 81%
- residual activity (MKNK1 (human); compound 1.0 µM): 86%
- residual activity (MKNK1 (human); compound 10.0 µM): 112%
- residual activity (MELK (human); compound 10.0 µM): 97%
- residual activity (MELK (human); compound 50.0 µM): 92%
- residual activity (MAPK9 (human); compound 50.0 µM): 104%
- residual activity (MARK1 (human); compound 10.0 µM): 97%
- residual activity (MARK1 (human); compound 50.0 µM): 101%
- residual activity (PAK7 (human); compound 10.0 µM): 101%
- residual activity (PAK7 (human); compound 50.0 µM): 90%
- residual activity (MAPK3 (human); compound 10.0 µM): 88%
- residual activity (MAPK3 (human); compound 50.0 µM): 101%
- residual activity (PIM3 (human); compound 10.0 µM): 97%
- residual activity (PIM3 (human); compound 50.0 µM): 95%
- residual activity (CAMKK2 (human); compound 10.0 µM): 98%
- residual activity (CAMKK2 (human); compound 50.0 µM): 104%
- residual activity (BRSK1 (human); compound 10.0 µM): 102%
- residual activity (BRSK1 (human); compound 50.0 µM): 124%
- residual activity (EEF2K (human); compound 1.0 µM): 97%
- residual activity (EEF2K (human); compound 10.0 µM): 61%
- residual activity (EEF2K (human); compound 50.0 µM): 71%
- residual activity (MAPKAPK5 (human); compound 1.0 µM): 92%
- residual activity (MAPKAPK5 (human); compound 10.0 µM): 91%
- residual activity (MAPKAPK5 (human); compound 50.0 µM): 88%
- residual activity (EPHB4 (human); compound 10.0 µM): 98%
- residual activity (EPHB4 (human); compound 50.0 µM): 97%
- residual activity (PRKCZ (human); compound 10.0 µM): 101%
- residual activity (PRKCZ (human); compound 50.0 µM): 93%
- residual activity (MAPK13 (human); compound 1.0 µM): 106%
- residual activity (MAPK13 (human); compound 10.0 µM): 95%
- residual activity (MAPK13 (human); compound 50.0 µM): 92%
- residual activity (MAPKAPK2 (human); compound 1.0 µM): 85%
- residual activity (MAPKAPK2 (human); compound 10.0 µM): 102%
- residual activity (MAPKAPK2 (human); compound 50.0 µM): 99%
- residual activity (MAPK12 (human); compound 1.0 µM): 93%
- residual activity (MAPK12 (human); compound 10.0 µM): 95%
- residual activity (MAPK12 (human); compound 50.0 µM): 89%
- residual activity (SYK (human); compound 10.0 µM): 100%
- residual activity (SYK (human); compound 50.0 µM): 98%
- residual activity (PRKACA (human); compound 1.0 µM): 82%
- residual activity (PRKACA (human); compound 10.0 µM): 91%
- residual activity (PRKACA (human); compound 50.0 µM): 93%
- residual activity (PIM1 (human); compound 10.0 µM): 98%
- residual activity (PIM1 (human); compound 50.0 µM): 100%
- residual activity (MAP2K6 (human); compound 10.0 µM): 95%
- residual activity (MAP2K6 (human); compound 50.0 µM): 81%
- residual activity (PIM2 (human); compound 1.0 µM): 83%
- residual activity (PIM2 (human); compound 10.0 µM): 104%
- residual activity (PIM2 (human); compound 50.0 µM): 98%
- residual activity (DAPK1 (human); compound 10.0 µM): 97%
- residual activity (DAPK1 (human); compound 50.0 µM): 94%
- residual activity (IKBKE (human); compound 10.0 µM): 101%
- residual activity (IKBKE (human); compound 50.0 µM): 81%
Structure (SMILES): CCCC(CCC)C(=O)O

- residual activity (HIPK3 (human); compound 1.0 µM): 96%
- residual activity (HIPK3 (human); compound 10.0 µM): 94%
- residual activity (IGF1R (human); compound 1.0 µM): 89%
- residual activity (IGF1R (human); compound 10.0 µM): 67%
- residual activity (ERBB4 (human); compound 1.0 µM): 110%
- residual activity (ERBB4 (human); compound 10.0 µM): 97%
- residual activity (GSK3B (human); compound 1.0 µM): 74%
- residual activity (GSK3B (human); compound 10.0 µM): 89%
- residual activity (DYRK1A (human); compound 1.0 µM): 89%
- residual activity (DYRK1A (human); compound 10.0 µM): 83%
- residual activity (FGFR1 (human); compound 1.0 µM): 98%
- residual activity (FGFR1 (human); compound 10.0 µM): 93%
- residual activity (MAP3K5 (human); compound 1.0 µM): 117%
- residual activity (MAP3K5 (human); compound 10.0 µM): 111%
- residual activity ([1]; compound 1.0 µM): 96%
- residual activity ([1]; compound 10.0 µM): 82%
- residual activity (BRSK2 (human); compound 1.0 µM): 89%
- residual activity (BRSK2 (human); compound 10.0 µM): 100%
- residual activity (PRKAA1 or PRKAA2 (rat); compound 1.0 µM): 91%
- residual activity (PRKAA1 or PRKAA2 (rat); compound 10.0 µM): 89%
- residual activity (STK3 (human); compound 1.0 µM): 64%
- residual activity (STK3 (human); compound 10.0 µM): 49%
- residual activity (MAP2K2 (human); compound 1.0 µM): 87%
- residual activity (MAP2K2 (human); compound 10.0 µM): 75%
- residual activity (PHKG1 (human); compound 1.0 µM): 97%
- residual activity (PHKG1 (human); compound 10.0 µM): 92%
- residual activity (MKNK1 (human); compound 1.0 µM): 89%
- residual activity (MKNK1 (human); compound 10.0 µM): 90%
- residual activity (MELK (human); compound 1.0 µM): 49%
- residual activity (MELK (human); compound 10.0 µM): 49%
- residual activity (MAPK9 (human); compound 10.0 µM): 97%
- residual activity (MARK1 (human); compound 1.0 µM): 96%
- residual activity (MARK1 (human); compound 10.0 µM): 114%
- residual activity (PAK7 (human); compound 1.0 µM): 99%
- residual activity (PAK7 (human); compound 10.0 µM): 80%
- residual activity (MAPK3 (human); compound 1.0 µM): 85%
- residual activity (MAPK3 (human); compound 10.0 µM): 83%
- residual activity (PIM3 (human); compound 1.0 µM): 67%
- residual activity (PIM3 (human); compound 10.0 µM): 55%
- residual activity (CAMKK2 (human); compound 1.0 µM): 69%
- residual activity (CAMKK2 (human); compound 10.0 µM): 59%
- residual activity (BRSK1 (human); compound 1.0 µM): 97%
- residual activity (BRSK1 (human); compound 10.0 µM): 86%
- residual activity (EEF2K (human); compound 1.0 µM): 99%
- residual activity (EEF2K (human); compound 10.0 µM): 109%
- residual activity (MAPKAPK5 (human); compound 1.0 µM): 82%
- residual activity (MAPKAPK5 (human); compound 10.0 µM): 89%
- residual activity (EPHB4 (human); compound 1.0 µM): 102%
- residual activity (EPHB4 (human); compound 10.0 µM): 96%
- residual activity (MAPK13 (human); compound 1.0 µM): 96%
- residual activity (MAPK13 (human); compound 10.0 µM): 95%
- residual activity (MAPKAPK2 (human); compound 1.0 µM): 115%
- residual activity (MAPK12 (human); compound 1.0 µM): 88%
- residual activity (MAPK12 (human); compound 10.0 µM): 100%
- residual activity (SYK (human); compound 1.0 µM): 105%
- residual activity (SYK (human); compound 10.0 µM): 76%
- residual activity (PRKACA (human); compound 10.0 µM): 92%
- residual activity (PIM1 (human); compound 1.0 µM): 81%
- residual activity (PIM1 (human); compound 10.0 µM): 73%
- residual activity (MAP2K6 (human); compound 1.0 µM): 101%
- residual activity (MAP2K6 (human); compound 10.0 µM): 92%
- residual activity (PIM2 (human); compound 1.0 µM): 91%
- residual activity (PIM2 (human); compound 10.0 µM): 96%
- residual activity (DAPK1 (human); compound 1.0 µM): 84%
- residual activity (DAPK1 (human); compound 10.0 µM): 88%
- residual activity (IKBKE (human); compound 1.0 µM): 111%
- residual activity (IKBKE (human); compound 10.0 µM): 97%
Structure (SMILES): CC(C)(C#N)c1ccc(N2C(=O)OCc3cnc4ccc(-c5cnc6ccccc6c5)cc4c32)cc1
